Broadly, the IC50 is the point on the concentration scale where inhibition reaches its midpoint. Read a low IC50 as greater potency in that assay.

2 compounds from ChEMBL document CHEMBL1122576 (J Med Chem, 1984) can be followed below.

Structures are written as SMILES.

The target of assay [1] is Aldo-keto reductase family 1 member B1 (Bos taurus, UniProt P16116). Nature of the assay: Inhibition of bovine lens aldose reductase with DL-glyceraldehyde as substrate.
The test system of assay [2] is Rattus norvegicus. Nature of the assay: Dose that decreased sorbitol accumulation by 50% in the sciatic nerve in the galactosemic rat model after administration for 3 weeks in the diet. The format is functional.
Assay [3] has as its system Rattus norvegicus. Nature of the assay: Dose that decreased galactitol accumulation by 50% in the sciatic nerve in the galactosemic rat model after administration for 4 days in the diet. The format is functional.
For assay [4], the system named is Rattus norvegicus. Description: Dose that decreased galactitol accumulation by 50% in the sciatic nerve in the galactosemic rat model after administration for 4 days in the diet; 7.3+/-2.3 mg/(kg day). It counts as functional.
In assay [5] the test system is Rattus norvegicus. Nature of the assay: Dose that decreased sorbitol accumulation by 50% in the sciatic nerve in the galactosemic rat model after administration for 3 weeks in the diet; 4.8+/- 2.4 mg/(kg day). The format is functional.

`O=C(O)CN1C(=O)c2cccc3cccc(c23)C1=O` [ALRESTATIN] came in with an IC50 in assay [1] of 2700 nM. The Dose is ~1000 mg/kg/day in the assay with Rattus norvegicus [2] and ~900 mg/kg/day with Rattus norvegicus [3].
Turning to `COc1ccc2c(C(=S)N(C)CC(=O)O)cccc2c1C(F)(F)F` [TOLRESTAT], the Dose amounted to 7.3 mg/kg/day in the assay on Rattus norvegicus [4] and 4.8 mg/kg/day in the assay with Rattus norvegicus [5].
